Results taken from PubChem BioAssay (NCI).
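Each compound was tested at five concentrations against cells in 96-well plates for 48 hours. Abbreviation: GI50, concentration required for 50% inhibition of growth. At the TGI there is no net growth.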

Assays:
Test in all cases: DTP human tumour cell line panel, 48 h
[1] = test system: BT-549 breast
[2] = test system: HS 578T breast
[3] = test system: MDA-MB-435
[4] = test system: T-47D breast

O=C(Nc1ccc(Cl)c(Cl)c1)NS(=O)(=O)c1cnccc1Oc1ccc(F)cc1
GI50 [1]: 6.84 µM | TGI [1]: 40.4 µM | GI50 [2]: 3.25 µM | TGI [2]: > 100 µM | GI50 [3]: 2.98 µM | TGI [3]: 12.2 µM | GI50 [4]: 2.8 µM | TGI [4]: 8.54 µM

Cc1cc(I)cc(CN(C)CCCN2CCCC2)c1O
GI50 [1]: 13.9 µM | TGI [1]: 31.7 µM | GI50 [2]: 13.6 µM | TGI [2]: 33.8 µM | GI50 [3]: 12.9 µM | TGI [3]: 28.6 µM | GI50 [4]: 19 µM | TGI [4]: 57.2 µM

Oc1ccccc1-c1nn(CNc2ccccc2Cl)c(=S)o1
GI50 [1]: > 100 µM | TGI [1]: > 100 µM | GI50 [2]: > 100 µM | TGI [2]: > 100 µM | GI50 [3]: > 100 µM | TGI [3]: > 100 µM | GI50 [4]: 13.5 µM | TGI [4]: 74.9 µM

COC(=O)C1(C)Cc2cc(OC(C)=O)c(OC(C)=O)cc2N1 (stereo unspecified)
GI50 [1]: 4.93 µM | TGI [1]: 22 µM | TGI [2]: > 24.1 µM | GI50 [3]: 6.29 µM | TGI [3]: 61.5 µM | GI50 [4]: 4.55 µM | TGI [4]: > 37.8 µM

C=C1C(=O)O[C@H]2[C@H]1CC/C(COC(=O)NCC(C)c1ccc(CC(C)C)cc1)=C\CC[C@@]1(C)O[C@@H]21 (stereo partly specified)
GI50 [1]: 0.775 µM | TGI [1]: 2.25 µM | GI50 [2]: 1.53 µM | TGI [2]: 15 µM | GI50 [3]: 1.24 µM | TGI [3]: 4.86 µM | GI50 [4]: 2.2 µM | TGI [4]: 7.83 µM

CN1/C(=C\C=C\C2=[N+](C)c3ccccc3C2(C)C)C(C)(C)c2ccccc21
GI50 [1]: 0.0903 µM | TGI [1]: 1.64 µM | GI50 [2]: 0.216 µM | TGI [2]: 4.45 µM | GI50 [3]: 0.0739 µM | TGI [3]: 0.936 µM | GI50 [4]: 0.0179 µM | TGI [4]: 1.27 µM

O=C1CCCCN1CCCCC#Cc1cccc(C#Cc2cccnc2)c1
GI50 [1]: 18.6 µM | TGI [1]: 74.7 µM | GI50 [2]: 28.5 µM | TGI [2]: > 100 µM | GI50 [3]: 28.9 µM | TGI [3]: > 100 µM | GI50 [4]: 5.66 µM | TGI [4]: 26 µM

Nc1ccc(/C=C/C(=O)NCc2cc3cc(-c4ccc(C(=O)N5CCC(F)(F)CC5)cc4)cc(-c4ccc(F)cc4)c3o2)cn1
GI50 [1]: 5.95 µM | TGI [1]: > 100 µM | GI50 [2]: > 100 µM | TGI [2]: > 100 µM | GI50 [3]: 0.752 µM | TGI [3]: > 100 µM | GI50 [4]: 0.784 µM | TGI [4]: > 100 µM

COc1ccc(OC)c(Cn2cc3c(c2-c2ccccc2)CCc2cnoc2-3)c1
GI50 [2]: 4.95 µM | TGI [2]: > 100 µM | GI50 [3]: 2.18 µM | TGI [3]: 9.11 µM | GI50 [4]: 18.1 µM | TGI [4]: > 100 µM

Cn1cc(C2=C(c3cn(C4CCN(Cc5ccccn5)CC4)c4ccccc34)C(=O)NC2=O)c2ccccc21
GI50 [1]: 7.56 µM | TGI [1]: > 100 µM | GI50 [2]: 3.75 µM | TGI [2]: > 72.1 µM | GI50 [3]: 2.87 µM | TGI [3]: > 100 µM | GI50 [4]: 5.45 µM | TGI [4]: > 100 µM

C=C1C(O)CC[C@]2(C)C1C1OC(C)(C)O[C@]13CC(=O)C(C)=C([C@H]1OC(C)(C)OC12)C3(C)C (stereo partly specified)
TGI [1]: > 100 µM | TGI [3]: > 100 µM | TGI [4]: > 100 µM

O=C(O)[C@@H](Cc1ccc2ccccc2c1)NC(=O)n1c2ccccc2c2ccccc21
GI50 [1]: 2.85 µM | TGI [1]: 14.2 µM | GI50 [2]: 2.24 µM | TGI [2]: 59.6 µM | GI50 [3]: 1.09 µM | TGI [3]: 3.39 µM | GI50 [4]: 11.6 µM | TGI [4]: > 100 µM

C=C1C[C@@H]2CC[C@@]34C[C@H]5O[C@H]6[C@@H](O3)[C@H]3O[C@H](CC[C@@H]3O[C@H]6[C@@H]5O4)CC(=O)C[C@@H]3[C@@H](OC)[C@@H](C[C@H](O)CN)O[C@H]3C[C@H]3O[C@@H](CC[C@@H]1O2)C[C@@H](C)C3=C
GI50 [1]: < 0.0167 µM | TGI [1]: > 37.5 µM | GI50 [2]: < 0.01 µM | TGI [2]: > 100 µM | GI50 [3]: < 0.01 µM | TGI [3]: < 0.01 µM

O=C(N/N=C/c1ccccc1O)c1ccccc1
GI50 [1]: 3.6 µM | TGI [1]: > 100 µM | GI50 [2]: 27.1 µM | TGI [2]: > 100 µM | GI50 [3]: 4.68 µM | TGI [3]: > 100 µM | GI50 [4]: 0.457 µM | TGI [4]: > 100 µM

C(=N\Nc1nnn(Cc2ccccc2)n1)/c1ccccc1
GI50 [1]: 11.5 µM | TGI [1]: > 100 µM | GI50 [2]: 13.7 µM | TGI [2]: > 89.6 µM | GI50 [3]: 0.367 µM | TGI [3]: 2.76 µM | GI50 [4]: 4.04 µM | TGI [4]: > 100 µM

O=c1c(F)cn(Cc2ccccc2CCl)c(=O)n1Cc1ccccc1CCl
GI50 [1]: 1.41 µM | TGI [1]: 2.91 µM | GI50 [2]: 1.92 µM | TGI [2]: 6.93 µM | GI50 [3]: 1.68 µM | TGI [3]: 3.4 µM | GI50 [4]: 1.57 µM | TGI [4]: 4.11 µM

COc1cc(NCCCCCCCNC(C)C)c2nccc(C)c2c1
GI50 [1]: 17.7 µM | TGI [1]: 33.5 µM | GI50 [2]: 17.4 µM | TGI [2]: 39.7 µM | GI50 [3]: 6.95 µM | TGI [3]: 21.2 µM | GI50 [4]: 5.44 µM | TGI [4]: 19.8 µM

CC(=O)OC(Cn1cncn1)(Cn1cncn1)c1ccc(Cl)cc1Cl
TGI [1]: > 100 µM | TGI [2]: > 100 µM | TGI [3]: > 100 µM | TGI [4]: > 100 µM

Cc1ccc(NC(=O)c2cc(S(=O)(=O)N3C(=O)NC(=O)NS3(=O)=O)c(S)cc2Cl)cc1
GI50 [1]: 24.2 µM | TGI [1]: 63.9 µM | GI50 [2]: 29.4 µM | TGI [2]: 95.8 µM | GI50 [3]: 17.1 µM | TGI [3]: 35.7 µM | GI50 [4]: 21.4 µM | TGI [4]: 81.3 µM

c1ccc2[nH]c(-c3ccc(Nc4nc(N5CCCCC5)nc(N5CCOCC5)n4)cc3)nc2c1
GI50 [1]: 2.07 µM | TGI [1]: 5.2 µM | GI50 [2]: 2.56 µM | TGI [2]: 8.61 µM | GI50 [3]: 2.06 µM | TGI [3]: 4.59 µM | GI50 [4]: 1.96 µM | TGI [4]: 4.58 µM
